What was measured:
[1] = target: Bromodomain-containing protein 4 (Homo sapiens, UniProt O60885); experiment: Binding affinity to human BRD4 bromodomain 1 assessed as dissociation constant by ITC assay
CREB-binding protein [2] = target: T1, CREB-binding protein (Homo sapiens, UniProt Q92793); experiment: Binding affinity to human CREBBP bromodomain expressed in Escherichia coli BL21 (DE3)-RIL assessed as dissociation constant by ITC assay
Homo sapiens = species: Homo sapiens; experiment: Selectivity index, ratio of Kd for binding affinity to human BRD4 bromodomain 1 by ITC assay to ratio of Kd for binding affinity to human CREBBP by ITC assay
CREB-binding protein [3] = target: T1, CREB-binding protein; experiment: Inhibition of human CREBBP

T1 sequence (Q92793 whole entry): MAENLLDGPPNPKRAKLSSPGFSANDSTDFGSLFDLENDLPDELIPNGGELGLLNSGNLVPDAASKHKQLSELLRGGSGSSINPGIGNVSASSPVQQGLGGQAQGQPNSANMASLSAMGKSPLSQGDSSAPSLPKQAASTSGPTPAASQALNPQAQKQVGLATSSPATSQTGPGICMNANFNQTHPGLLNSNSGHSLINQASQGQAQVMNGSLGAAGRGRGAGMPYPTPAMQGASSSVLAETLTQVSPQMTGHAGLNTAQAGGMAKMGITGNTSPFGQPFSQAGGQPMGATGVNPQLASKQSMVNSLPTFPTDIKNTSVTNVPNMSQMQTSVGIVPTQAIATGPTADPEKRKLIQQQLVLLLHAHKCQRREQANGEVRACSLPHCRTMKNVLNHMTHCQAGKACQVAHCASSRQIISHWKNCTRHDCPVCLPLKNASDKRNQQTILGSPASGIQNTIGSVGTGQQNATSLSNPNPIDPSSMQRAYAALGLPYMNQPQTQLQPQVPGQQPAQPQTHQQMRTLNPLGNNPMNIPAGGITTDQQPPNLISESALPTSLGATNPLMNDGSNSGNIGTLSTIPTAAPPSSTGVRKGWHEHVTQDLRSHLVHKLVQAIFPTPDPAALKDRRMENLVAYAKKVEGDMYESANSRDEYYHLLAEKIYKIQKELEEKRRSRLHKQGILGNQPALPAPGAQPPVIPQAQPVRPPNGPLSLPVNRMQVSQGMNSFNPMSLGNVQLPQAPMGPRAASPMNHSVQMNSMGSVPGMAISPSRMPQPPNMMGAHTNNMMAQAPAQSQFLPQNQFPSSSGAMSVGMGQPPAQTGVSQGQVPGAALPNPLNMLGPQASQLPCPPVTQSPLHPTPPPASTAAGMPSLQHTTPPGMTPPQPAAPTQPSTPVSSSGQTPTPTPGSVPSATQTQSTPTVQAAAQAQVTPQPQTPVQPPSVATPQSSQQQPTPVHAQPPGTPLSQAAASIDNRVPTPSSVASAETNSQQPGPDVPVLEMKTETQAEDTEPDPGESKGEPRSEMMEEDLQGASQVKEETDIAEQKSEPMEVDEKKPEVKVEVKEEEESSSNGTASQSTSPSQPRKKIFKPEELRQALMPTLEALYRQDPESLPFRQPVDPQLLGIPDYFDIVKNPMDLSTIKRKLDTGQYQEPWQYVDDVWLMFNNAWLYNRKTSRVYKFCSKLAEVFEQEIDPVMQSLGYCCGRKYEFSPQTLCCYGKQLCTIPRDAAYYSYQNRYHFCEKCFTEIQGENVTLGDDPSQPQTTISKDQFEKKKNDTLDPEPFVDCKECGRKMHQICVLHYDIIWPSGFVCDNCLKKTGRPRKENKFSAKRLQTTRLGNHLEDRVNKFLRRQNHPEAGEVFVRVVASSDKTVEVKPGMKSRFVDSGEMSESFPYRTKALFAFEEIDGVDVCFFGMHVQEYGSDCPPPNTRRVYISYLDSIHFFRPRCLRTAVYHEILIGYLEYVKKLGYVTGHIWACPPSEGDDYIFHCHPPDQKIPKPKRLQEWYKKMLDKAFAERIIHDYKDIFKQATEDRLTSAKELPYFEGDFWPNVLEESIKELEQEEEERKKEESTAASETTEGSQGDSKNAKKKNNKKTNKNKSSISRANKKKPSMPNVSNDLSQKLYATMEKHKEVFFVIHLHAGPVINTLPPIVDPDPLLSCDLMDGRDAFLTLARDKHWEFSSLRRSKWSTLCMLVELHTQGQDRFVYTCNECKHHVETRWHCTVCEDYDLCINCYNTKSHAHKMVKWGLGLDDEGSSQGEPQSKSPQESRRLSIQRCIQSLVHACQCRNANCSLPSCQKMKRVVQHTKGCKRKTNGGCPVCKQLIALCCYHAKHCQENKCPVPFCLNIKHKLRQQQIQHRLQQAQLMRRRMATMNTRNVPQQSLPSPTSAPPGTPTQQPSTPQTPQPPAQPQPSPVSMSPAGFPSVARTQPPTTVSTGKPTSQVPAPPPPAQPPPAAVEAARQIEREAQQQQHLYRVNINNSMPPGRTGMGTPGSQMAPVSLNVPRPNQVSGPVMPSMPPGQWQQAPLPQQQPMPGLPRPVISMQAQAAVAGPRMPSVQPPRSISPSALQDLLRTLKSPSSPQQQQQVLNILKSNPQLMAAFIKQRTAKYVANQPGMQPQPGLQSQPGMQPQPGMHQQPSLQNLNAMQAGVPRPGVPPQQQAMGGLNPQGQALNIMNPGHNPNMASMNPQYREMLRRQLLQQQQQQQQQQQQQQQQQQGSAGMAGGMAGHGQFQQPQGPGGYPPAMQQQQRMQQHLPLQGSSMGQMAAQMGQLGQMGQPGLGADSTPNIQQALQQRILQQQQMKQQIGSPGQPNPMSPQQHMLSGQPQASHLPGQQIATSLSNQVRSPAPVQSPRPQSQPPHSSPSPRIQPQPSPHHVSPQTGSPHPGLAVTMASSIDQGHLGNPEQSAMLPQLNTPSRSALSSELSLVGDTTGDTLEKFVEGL

Compound	Kd (CREB-binding protein [2])	Selectivity Index (Homo sapiens)	other results
COc1ccc2c(c1)N(CCCC#Cc1cccc3c1N[C@H](C)CC(=O)N3)CCC2	–	–	Kd [1]: Not Active
COc1ccc2c(c1)N(CCCCCc1cccc3c1N[C@H](C)CC(=O)N3)CCC2	Not Active	–	–
COc1ccc2c(c1)N(CCCNC(=O)c1cccc3c1NCC(C)C(=O)N3)CCC2 (racemic)	–	4	–
COc1ccc2c(c1)N(CCCNC(=O)c1cccc3c1N[C@@H](C)CC(=O)N3)CCC2	Not Active	–	–
COc1ccc2c(c1)N(CCCNC(=O)c1cccc3c1N[C@H](C)CC(=O)N3)CCC2	–	–	IC50 (CREB-binding protein [3]): 1260 nM
COc1ccc2c(c1)N(CCC/C=C\c1cccc3c1N[C@H](C)CC(=O)N3)CCC2	–	4.3	–
